Results: patent US20120094964A1, “SULFAMOYL BENZOIC ACID DERIVATIVES AS TRPM8 ANTAGONISTS” (priority 2009, published 2012)

Each compound was assayed against T1, human TRPM8 (Homo sapiens, UniProt Q7Z2W7) (assay: In Vitro human TRPM8 Functional Assay (intracellular Ca2+, Fluo4, FDSS, menthol activation)). Conditions: HEK293 cells stably expressing human TRPM8; activation with L-(-)-Menthol; 11-point dose-response.
T1 construct: expressed in transfected cells
Type: cell-based
In short: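 Fluo4-loaded HEK293 cells stably expressing TRPM8 were preincubated with compound for 5 min at room temperature, then stimulated with L-menthol (20 μl of 90 μM stock) while fluorescence was read. IC50 values come from 11-point curves fitted to the mean of duplicate wells.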

T1 sequence (Q7Z2W7 whole entry): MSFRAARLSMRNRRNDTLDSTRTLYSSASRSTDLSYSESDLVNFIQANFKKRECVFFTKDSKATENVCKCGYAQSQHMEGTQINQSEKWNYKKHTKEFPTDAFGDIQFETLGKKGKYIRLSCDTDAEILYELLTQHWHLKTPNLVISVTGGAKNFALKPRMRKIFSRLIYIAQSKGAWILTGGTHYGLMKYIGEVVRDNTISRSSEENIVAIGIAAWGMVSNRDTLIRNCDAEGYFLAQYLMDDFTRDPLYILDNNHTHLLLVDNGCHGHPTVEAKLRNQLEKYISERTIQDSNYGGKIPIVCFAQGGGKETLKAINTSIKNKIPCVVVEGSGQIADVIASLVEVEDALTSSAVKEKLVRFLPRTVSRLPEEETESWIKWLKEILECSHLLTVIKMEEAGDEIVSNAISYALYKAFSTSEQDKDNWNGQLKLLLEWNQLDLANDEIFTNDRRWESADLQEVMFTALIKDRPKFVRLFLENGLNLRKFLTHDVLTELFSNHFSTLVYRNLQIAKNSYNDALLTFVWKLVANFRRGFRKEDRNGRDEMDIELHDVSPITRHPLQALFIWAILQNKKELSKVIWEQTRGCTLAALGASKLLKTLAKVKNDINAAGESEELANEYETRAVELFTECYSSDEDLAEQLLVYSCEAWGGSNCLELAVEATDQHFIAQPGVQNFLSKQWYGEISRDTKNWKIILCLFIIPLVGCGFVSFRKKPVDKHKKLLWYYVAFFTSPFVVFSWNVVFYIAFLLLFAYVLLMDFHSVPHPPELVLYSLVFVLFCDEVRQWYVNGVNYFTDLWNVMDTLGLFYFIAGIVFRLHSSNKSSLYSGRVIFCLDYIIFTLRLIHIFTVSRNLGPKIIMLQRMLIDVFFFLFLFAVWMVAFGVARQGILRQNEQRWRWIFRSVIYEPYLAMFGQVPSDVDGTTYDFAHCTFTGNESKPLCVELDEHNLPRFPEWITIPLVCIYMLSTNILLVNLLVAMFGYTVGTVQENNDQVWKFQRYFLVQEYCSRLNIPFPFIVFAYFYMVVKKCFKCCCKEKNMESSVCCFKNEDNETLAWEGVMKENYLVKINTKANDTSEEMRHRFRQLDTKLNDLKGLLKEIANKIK

Question: With COc1ccc(OC)c(C(C)N(c2cccc(F)c2)S(=O)(=O)c2cc(F)ccc2C)c1 (stereo not drawn) [Example 136, N-(1-(2,5-Dimethoxyphenyl)ethyl)-5-fluoro-N-(3-fluorophenyl)-2-methyl-benzenesulfonamide] as the compound, how does the IC50 read?
Answer: The IC50 was 1000 to 10000 nM.

Question: With O=C(O)c1ccc(S(=O)(=O)N(Cc2ccsc2)c2ncc(C(F)(F)F)cc2Cl)cc1 [Example 172, 4-(N-(3-Chloro-5-(trifluoromethyl)pyridin-2-yl)-N-(thiophen-3-ylmethyl)sulfamoyl)benzoic acid] as the compound, how does the IC50 read?
Answer: Its IC50 is less than 1000 nM.

Question: With Cc1cc(Cl)cnc1N(Cc1ccc(Cl)c(C(F)(F)F)c1)S(=O)(=O)c1ccc(C(=O)O)cc1 [Example 79, 4-(N-(4-Chloro-3-(trifluoromethyl)benzyl)-N-(5-chloro-3-methylpyridin-2-yl)sulfamoyl)benzoic acid] as the compound, how does the IC50 read?
Answer: The IC50 was less than 1000 nM.

Question: How did the IC50 turn out when COc1ccccc1C(C)N(c1cccc(F)c1)S(=O)(=O)c1ccc(C)c(Cl)c1 (stereo not drawn) [Example 105, 3-Chloro-N-(3-fluorophenyl)-N-(1-(2-methoxyphenyl)ethyl)-4-methylbenzene-sulfonamide] was run?
Answer: Its IC50 is 1000 to 10000 nM.

Question: O=C(O)c1ccc(S(=O)(=O)N(Cc2ccc(OC(F)(F)F)cc2)c2ncc(C(F)(F)F)cc2Cl)cc1 [Example 15, 4-(N-(3-Chloro-5-(trifluoromethyl)pyridin-2-yl)-N-(4-(trifluoromethoxy)benzyl)sulfamoyl)benzoic acid] was tested. Which IC50 did it give?
Answer: The IC50 was less than 1000 nM.

Question: For O=C(O)c1ccc(S(=O)(=O)N(Cc2ccccc2-c2ccccc2)c2ncc(C(F)(F)F)cc2Cl)cc1 [Example 165, 4-(N-([1,1′-Biphenyl]-2-ylmethyl)-N-(3-chloro-5-(trifluoromethyl)pyridin-2-yl)sulfamoyl)benzoic acid], which IC50 is on record?
Answer: Its IC50 is less than 1000 nM.

Question: COc1ccc(N(C(C)c2ccccc2OC)S(=O)(=O)c2ccc(C)c(Cl)c2)cc1 (stereo not drawn) [Example 104, 3-Chloro-N-(4-methoxyphenyl)-N-(1-(2-methoxy-phenyl)ethyl)-4-methyl benzenesulfonamide] was tested. Which IC50 did it give?
Answer: The IC50 was 10000 to 30000 nM.

Question: With Cc1cccnc1N(Cc1ccccc1)S(=O)(=O)c1ccc(C(=O)O)cc1 [Example 34, 4-(N-Benzyl-N-(3-methylpyridin-2-yl)sulfamoyl)benzoic acid] as the compound, how does the IC50 read?
Answer: Its IC50 is 1000 to 10000 nM.

Question: With O=C(O)c1ccc(S(=O)(=O)N(CCc2ccccc2)c2ncc(C(F)(F)F)cc2Cl)cc1 [Example 148, 4-(N-(3-Chloro-5-(trifluoromethyl)pyridin-2-yl)-N-phenethylsulfamoyl)benzoic acid] as the compound, how does the IC50 read?
Answer: Its IC50 is less than 1000 nM.

Question: With O=C(O)c1ccc(S(=O)(=O)N(Cc2ccccc2)c2ncc(-c3ccsc3)cc2Cl)cc1 [Example 184, 4-(N-Benzyl-N-(3-chloro-5-(thiophen-3-yl)pyridin-2-yl)sulfamoyl)benzoic acid] as the compound, how does the IC50 read?
Answer: The IC50 was less than 1000 nM.

Question: O=C(O)c1ccc(S(=O)(=O)N(Cc2ccccc2OC(F)(F)F)c2ncc(C(F)(F)F)cc2Cl)cc1 [Example 51, 4-(N-(3-Chloro-5-(trifluoromethyl)pyridin-2-yl)-N-(2-(trifluoromethoxy)benzyl)sulfamoyl)benzoic acid] was tested. Which IC50 did it give?
Answer: Its IC50 is less than 1000 nM.

Question: Which IC50 does the source give for Cc1cccc(N(C(C)c2ccccc2F)S(=O)(=O)c2ccccc2F)c1 (stereo not drawn) [Example 91, 2-Fluoro-N-(1-(2-fluoro-phenyl)ethyl)-N-m-tolyl benzenesulfonamide] here?
Answer: Its IC50 is 1000 to 10000 nM.

Question: For O=C(O)c1ccc(S(=O)(=O)N(Cc2ccc(-c3ccco3)cc2)c2ncc(C(F)(F)F)cc2Cl)cc1 [Example 157, 4-(N-(3-Chloro-5-(trifluoromethyl)pyridin-2-yl)-N-(4-(furan-2-yl)-benzyl)sulfamoyl)benzoic acid], which IC50 is on record?
Answer: The IC50 was less than 1000 nM.

Question: With O=C(CN(c1cccc(C(F)(F)F)c1)S(=O)(=O)c1ccccc1)NCc1ccccc1 [Example 7, N-Benzyl-2-(N-(3-(trifluoromethyl)phenyl)benzenesulfonamido)acetamide] as the compound, how does the IC50 read?
Answer: Its IC50 is 10000 to 30000 nM.

Question: For Cc1ccc(CN(c2ncc(Cl)cc2Cl)S(=O)(=O)c2ccc(C(=O)O)cc2)cc1F [Example 67, 4-(N-(3,5-Dichloropyridin-2-yl)-N-(3-fluoro-4-methylbenzyl)sulfamoyl)benzoic acid], which IC50 is on record?
Answer: The IC50 was less than 1000 nM.

Question: For COc1ccc(N(Cc2ccccc2)S(=O)(=O)c2ccc(Cl)c(C(=O)O)c2)cc1 [Example 119, 5-(N-Benzyl-N-(4-methoxyphenyl)sulfamoyl)-2-chlorobenzoic acid], which IC50 is on record?
Answer: Its IC50 is 10000 to 30000 nM.

Question: CN(C)C(=O)NCc1ccc(S(=O)(=O)N(Cc2ccccc2)c2ncc(C(F)(F)F)cc2Cl)cc1 [Example 179, N-Benzyl-N-(3-chloro-5-(trifluoromethyl)pyridin-2-yl)-4-((3,3-dimethylureido)methyl)benzene sulfonamide] was tested. Which IC50 did it give?
Answer: Its IC50 is less than 1000 nM.

Question: How did the IC50 turn out when O=S(=O)(c1ccc(-c2nn[nH]n2)cc1)N(Cc1ccccc1)c1ncc(C(F)(F)F)cc1Cl [Example 174, N-Benzyl-N-(3-chloro-5-(trifluoromethyl)pyridin-2-yl)-4-(2H-tetrazol-5-yl)benzenesulfonamide] was run?
Answer: Its IC50 is less than 1000 nM.

Question: Which IC50 does the source give for O=C(O)c1ccc(S(=O)(=O)N(Cc2ccc(F)c(Cl)c2)c2ncc(Cl)cc2Cl)cc1 [Example 69, 4-(N-(3-Chloro-4-fluorobenzyl)-N-(3,5-dichloropyridin-2-yl)sulfamoyl)benzoic acid] here?
Answer: Its IC50 is less than 1000 nM.

Question: How did the IC50 turn out when COc1cccc(N(C(C)c2cc(OC)ccc2OC)S(=O)(=O)c2ccccc2F)c1 (stereo not drawn) [Example 90, N-(1-(2,5-Dimethoxyphenyl)ethyl)-2-fluoro-N-(3-methoxyphenyl)benzene-sulfonamide] was run?
Answer: The IC50 was 1000 to 10000 nM.

Question: COc1ccc(N(Cc2ccccc2)S(=O)(=O)c2cccc(C(=O)O)c2)cc1 [Example 113, 3-(N-Benzyl-N-(4-methoxyphenyl)sulfamoyl) benzoic acid] was tested. Which IC50 did it give?
Answer: The IC50 was 1000 to 10000 nM.

Question: Which IC50 does the source give for O=C(O)c1ccc(S(=O)(=O)N(Cc2ccc(C(F)(F)F)nc2)c2ncc(C(F)(F)F)cc2Cl)cc1 [Example 160, 4-(N-(3-Chloro-5-(trifluoromethyl)pyridin-2-yl)-N-((6-(trifluoromethyl)pyridin-3-yl)methyl)sulfamoyl)benzoic acid] here?
Answer: The IC50 was less than 1000 nM.

Question: With Cc1ccc(S(=O)(=O)N(Cc2ccccc2)c2ccccn2)cc1 [Example 106, N-Benzyl-4-methyl-N-(pyridin-2-yl) benzenesulfonamide] as the compound, how does the IC50 read?
Answer: The IC50 was 1000 to 10000 nM.

Question: O=C(O)c1ccc(S(=O)(=O)N(CCN2CCOCC2)c2ccc(C(F)(F)F)cc2Cl)cc1 [Example 81, 4-(N-(2-Chloro-4-(trifluoromethyl)phenyl)-N-(2-morpholinoethyl)sulfamoyl)benzoic acid] was tested. Which IC50 did it give?
Answer: The IC50 was 1000 to 10000 nM.

Question: How did the IC50 turn out when COc1ccccc1N(Cc1ccccc1)S(=O)(=O)c1cccc(C(=O)O)c1 [Example 114, 3-(N-Benzyl-N-(2-methoxyphenyl)sulfamoyl) benzoic acid] was run?
Answer: The IC50 was 10000 to 30000 nM.

Question: Which IC50 does the source give for NC(=O)Nc1ccc(S(=O)(=O)N(Cc2ccccc2)c2ncc(C(F)(F)F)cc2Cl)cc1 [Example 195, N-Benzyl-N-(3-chloro-5-(trifluoromethyl)pyridin-2-yl)-4-ureidobenzenesulfonamide] here?
Answer: The IC50 was less than 1000 nM.

Question: O=C(O)c1ccc(S(=O)(=O)N(Cc2cccs2)c2ncc(C(F)(F)F)cc2Cl)cc1 [Example 167, 4-(N-(3-Chloro-5-(trifluoromethyl)pyridin-2-yl)-N-(thiophen-2-ylmethyl)sulfamoyl)benzoic acid] was tested. Which IC50 did it give?
Answer: The IC50 was less than 1000 nM.

Question: For O=C(O)c1ccc(S(=O)(=O)N(Cc2ccc(-c3ccncc3)cc2)c2ncc(C(F)(F)F)cc2Cl)cc1 [Example 156], which IC50 is on record?
Answer: Its IC50 is less than 1000 nM.

Question: For Cc1ccc(CN(c2ncc(Cl)cc2Cl)S(=O)(=O)c2ccc(C(=O)O)cc2)cc1C(F)(F)F [Example 68, 4-(N-(3,5-dichloropyridin-2-yl)-N-(4-methyl-3-(trifluoromethyl)benzyl)sulfamoyl)benzoic acid], which IC50 is on record?
Answer: Its IC50 is less than 1000 nM.

Question: With O=C(O)c1ccc(S(=O)(=O)N(Cc2ccc(OCC(F)(F)F)cc2)c2ncc(C(F)(F)F)cc2Cl)cc1 [Example 41] as the compound, how does the IC50 read?
Answer: Its IC50 is less than 1000 nM.

Question: For O=C(O)c1ccc(S(=O)(=O)N(Cc2ccccc2)c2ncc(C(F)(F)F)cc2Br)cc1 [Example 151, 4-(N-Benzyl-N-(3-bromo-5-(trifluoromethyl)pyridin-2-yl)sulfamoyl)benzoic acid], which IC50 is on record?
Answer: The IC50 was less than 1000 nM.

Question: With Cc1cccc(N(C(C)c2ccccc2F)S(=O)(=O)c2ccccc2C)c1 (stereo not drawn) [Example 100, N-(1-(2-Fluorophenyl)ethyl)-2-methyl-N-tolyl benzenesulfonamide] as the compound, how does the IC50 read?
Answer: The IC50 was 1000 to 10000 nM.

Question: How did the IC50 turn out when COc1cccc(C(C)N(c2cccc(OC)c2)S(=O)(=O)c2ccc(C)c(F)c2)c1 (stereo not drawn) [Example 103, 3-Fluoro-N-(3-methoxyphenyl)-N-(1-(3-methoxy-phenyl)ethyl)-4-methyl benzenesulfonamide] was run?
Answer: Its IC50 is 1000 to 10000 nM.

Question: O=C(O)c1ccc(S(=O)(=O)N(Cc2ccc(-c3cnco3)cc2)c2ncc(C(F)(F)F)cc2Cl)cc1 [Example 159, 4-(N-(3-Chloro-5-(trifluoromethyl)pyridin-2-yl)-N-(4-(oxazol-5-yl)benzyl)sulfamoyl)benzoic acid] was tested. Which IC50 did it give?
Answer: Its IC50 is less than 1000 nM.

Question: How did the IC50 turn out when O=C(O)c1ccc(S(=O)(=O)N(Cc2ccc(Oc3ccccc3)cc2)c2ncc(C(F)(F)F)cc2Cl)cc1 [Example 169, 4-(N-(3-Chloro-5-(trifluoromethyl)pyridin-2-yl)-N-(4-phenoxybenzyl)sulfamoyl)benzoic acid] was run?
Answer: The IC50 was less than 1000 nM.

Question: O=[N+]([O-])c1ccc(S(=O)(=O)N(Cc2ccccc2)c2ccccn2)cc1 [Example 130, N-Benzyl-4-nitro-N-(pyridin-2-yl)benzene-sulfonamide] was tested. Which IC50 did it give?
Answer: Its IC50 is 1000 to 10000 nM.

Question: For O=C(O)c1cccc(S(=O)(=O)N(Cc2ccccc2)c2ccccc2)c1 [Example 116, 3-(N-Benzyl-N-phenylsulfamoyl)benozic acid], which IC50 is on record?
Answer: Its IC50 is 10000 to 30000 nM.

Question: Which IC50 does the source give for O=C(O)c1ccc(S(=O)(=O)N(Cc2ccc(-c3cccnc3)cc2)c2ncc(C(F)(F)F)cc2Cl)cc1 [Example 154, 4-(N-(3-Chloro-5-(trifluoromethyl)pyridin-2-yl)-N-(4-(pyridin-3-yl)benzyl)sulfamoyl)benzoic acid] here?
Answer: Its IC50 is less than 1000 nM.

Question: For COc1ccc(N(C(C)c2ccccc2F)S(=O)(=O)c2ccc(F)c(Cl)c2)cc1 (stereo not drawn) [Example 97, 3-Chloro-4-fluoro-N-(1-(2-fluorophenyl)ethyl)-N-(4-methoxyphenyl) benzenesulfonamide], which IC50 is on record?
Answer: The IC50 was 1000 to 10000 nM.
